For orientation: IC50 means the concentration needed to halve the response being measured. Usually EC50 stands for the concentration giving half of the maximal effect. By EC90 is commonly meant the concentration at which the effect reaches the 90% level. A high value points to weaker potency. By inhibition is commonly meant the percentage by which the read-out fell short of the control.

In assay [1] the target is binding of HIV associated glycoprotein gp120 and the integrin α4β7 (Homo sapiens (Human), UniProt P13612+P26010). Kind of assay: ELISA assay of gp120 binding to integrin α4β7. More on the design: species or system human (α4β7); HIV-1 ADA strain (gp120). The conditions noted are these: inhibition of gp120/α4β7 binding, triplicate with two anti-gp120 antibodies, read-out: IC50 a4b7. The text has this: A sandwich assay was developed to screen for compounds that inhibit the binding of a4b7 to gp120. Without inhibitors, gp120 and a4b7 bind and this complex can be identified by addition of a mouse anti-gp120 mAb (step 3). This a4b7*gp120anti-gp120 mAb complex is then sequestered on the bottom surface of a 96 welled-plate coated with an anti-mouse secondary mAb (step 4). The complex is then detected by addition of a biotinylated primary mAb against a4b7 (step 5) and detected using an HRP-avidin (step 6). A positive binding event is identified by the presence of HPR activity within each well. The addition of an inhibitor (step 2) blocks the binding between gp120 and a4b7 leading to a lack or reduction of HRP activity as shown in steps 2-5 at the bottom of the figure.
Step 1: Prepare the antigen plate • a. Prepare a PBS stock solution containing 1 μM gp120 and 1 μM α4β7 • b. Add a 200 μL aliquot to each well of the antigen plate.
Step 2: Add the inhibitor. • a. Add 20 μL of a 10× stock of the inhibitor in PBS pH 7.2 containing 1% DMSO • b. Incubate at 4° C. for 6 h with shaking. This delivers the antigen plate.
Step 3: Prepare the binding plate. • a. Aspirate each well of the binding plate • b. Wash three times with 200 μL of wash buffer (PBS pH 7.2, containing 0.05% Tween 20). • c. Add 100 μL of a 0.5 μg/mL stock of the mouse anti-gp120 mAb in PBS pH 7.2 • d. Shake for 1 h at 23° C.
Step 4: Sequester the gp120*α4β7 complex. • a. Aspirate each well of the binding plate. • b. Wash three times with 200 μL of wash buffer. • c. Transfer the contents of the antigen plate to the corresponding wells in the binding plate. • d. Shake for 1 h at 23° C.
Step 5: Develop the binding plate. • a. Aspirate each well of the binding plate. • b. Wash three times with 200 μL of wash buffer. • c. Add 100 μL of a 0.1 μg/mL of the rat anti-α4β7 mAb. • d. Shake for 1 h at 37° C. • e. Aspirate each well of the binding plate. • f. Wash three times with 200 μL of wash buffer. • g. Add 100 μL of 0.2 μg/mL solution of the HRP-conjugated strepavidin • h. Shake for 1 h at 37° C. • i. Aspirate each well of the binding plate. • j. Wash three times with 200 μL of wash buffer. • k. Develop using QuantaBlu fluorogenic peroxidase substrate (ThermoScientific) • l. Evaluate the fluorescence output on a HTS7000 plate reader (Perkin Elmer).
The ELISA assay was applied to screen the compounds in the table, below, to further characterize their activity against the binding of HIV associated glycoprotein gp120 and the integrin α4β7.
The five-step assay developed was applied to screen the compounds in the table below. […] The experiments were run in triplicate using two antibodies against gp120.
(ELISA stands for enzyme-linked immunosorbent assay.)

The subject of assay [2] is HIV-1 R9 (CXCR4-tropic strain). Description: Infectivity assay in HeLa reporter cell line (HeLa-CD4-Bgal). To be noted: HeLa reporter cells, HIV-1 R9, 36 h. The assay is classed as cell-based. As to the method:
FIG. 2: Experimental outline to evaluate HIV infectivity in a HeLa reporter cell line HIV-1 particles are produced in 293T cells transfected with R9 HIV DNA in the absence of test compounds. Particles are collected, titrated by measuring the amount of p24 antigen and frozen until their use. In the infectivity assay HeLa-CD4-Bgal cells are preincubated for 20 min in the absence or presence of test compounds, and the viral particles are added. Infectivity is monitored with a beta-galactosidase enzymatic reaction 36 hours after infection. Test compounds and virus are left with the cells throughout the entire infection period.
Compounds were evaluated with a HeLa reporter cell line containing the bacterial b-galactosidase gene inserted in the cell chromosome under control of the viral LTR. […] HIV-1 R9 (CXCR4-tropic strain) was used in these experiments to challenge cells. Viruses were first produced by transfection of 293T cells with a plasmid DNA expressing HIV-1. Viral particles were harvested and frozen until use. Infectivity assays were performed incubating cells in the absence or presence of compounds for 20 min before addition of virus. Upon infection, virus and compounds were left with the cells for the entire period of infection (36 h). At that time the extent of infection was evaluated using a luminescent substrate of Bgal. FIG. 2 depicts the experimental outline used to evaluate the anti-HIV activity of lead compounds. Controls with known ARVs include AZT, a reverse-transcriptase inhibitor (RTI), and the HIV integrase inhibitor raltegravir. Controls with vehicle alone are also included

In another assay the test system is HIV-1-LAI strain. Description: Antiviral assay in PHA-P-activated PBMC, RT activity in supernatants. Type of assay: cell-based. The conditions noted are these: day 7 RT activity. Here is the method: Phytohemagglutinin (PHA)-P-activated PBMC were infected with the reference lymphotropic HIV-1-LAI strain (Wain-Hobson et al., Science, vol. 252, no. 5008, pp. 961-965 (1991)). This virus was amplified in vitro with PHA-P-activated blood mononuclear cells. Viral stocks were titrated using PHA-P-activated PBMC, and 50% tissue culture infectious doses (TCID50) was calculated using Karber's formula. PBMC were pretreated for 30 min by two concentrations of each molecule and infected with 125 TCID50 of this HIV-1 strain. AZT and T20 were used as reference anti-HIV molecule. Molecules were maintained throughout the culture, and cell supernatants were collected at day 7 post-infection and stored at −20° C. Viral replication was measured by quantifying reverse transcriptase (RT) activity in these cell culture supernatants using the Lenti RT activity kit (Cavidi). In parallel, cytotoxicity was evaluated on day 7 in uninfected PHA-P-activated PBMC using the colorimetric methyl-tetrazolium salt assay (MTS/PMS; Promega). Experiments were performed in triplicate and the inhibition of viral replication of the compounds was calculated using SoftMaxPro software (Molecular Devices Inc. CA, USA).
Dilutions in Cell Culture Medium Containing 0.1% DMSO (Final Concentration)

Chain of binding of HIV associated glycoprotein gp120 and the integrin α4β7 (P13612 whole entry, looked up): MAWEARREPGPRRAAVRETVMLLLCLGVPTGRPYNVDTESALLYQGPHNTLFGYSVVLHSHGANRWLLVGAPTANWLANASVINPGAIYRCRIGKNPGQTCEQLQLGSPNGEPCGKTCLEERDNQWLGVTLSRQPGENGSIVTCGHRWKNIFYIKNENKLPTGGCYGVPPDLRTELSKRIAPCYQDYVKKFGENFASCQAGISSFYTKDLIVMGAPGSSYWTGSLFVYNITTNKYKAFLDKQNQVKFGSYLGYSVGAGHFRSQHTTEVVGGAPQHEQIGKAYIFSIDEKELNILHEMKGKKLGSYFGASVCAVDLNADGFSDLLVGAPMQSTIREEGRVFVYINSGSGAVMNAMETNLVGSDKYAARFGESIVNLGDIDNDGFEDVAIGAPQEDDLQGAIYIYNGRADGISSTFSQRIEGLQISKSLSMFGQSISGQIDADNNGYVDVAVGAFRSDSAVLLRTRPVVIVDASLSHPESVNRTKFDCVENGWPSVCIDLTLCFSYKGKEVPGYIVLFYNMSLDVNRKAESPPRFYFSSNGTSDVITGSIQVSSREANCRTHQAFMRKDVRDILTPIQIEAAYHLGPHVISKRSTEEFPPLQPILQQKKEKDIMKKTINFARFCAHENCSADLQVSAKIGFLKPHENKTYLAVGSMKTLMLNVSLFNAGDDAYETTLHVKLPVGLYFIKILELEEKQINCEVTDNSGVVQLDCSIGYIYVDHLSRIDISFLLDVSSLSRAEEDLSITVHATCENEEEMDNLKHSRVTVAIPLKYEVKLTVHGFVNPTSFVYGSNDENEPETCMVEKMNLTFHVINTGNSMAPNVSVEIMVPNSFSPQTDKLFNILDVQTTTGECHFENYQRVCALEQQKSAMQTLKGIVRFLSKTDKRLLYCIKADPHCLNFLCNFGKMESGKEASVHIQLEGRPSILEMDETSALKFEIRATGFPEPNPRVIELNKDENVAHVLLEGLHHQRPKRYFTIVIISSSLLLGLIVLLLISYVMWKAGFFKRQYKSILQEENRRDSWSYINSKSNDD
Chain of binding of HIV associated glycoprotein gp120 and the integrin α4β7 (P26010 whole entry, looked up): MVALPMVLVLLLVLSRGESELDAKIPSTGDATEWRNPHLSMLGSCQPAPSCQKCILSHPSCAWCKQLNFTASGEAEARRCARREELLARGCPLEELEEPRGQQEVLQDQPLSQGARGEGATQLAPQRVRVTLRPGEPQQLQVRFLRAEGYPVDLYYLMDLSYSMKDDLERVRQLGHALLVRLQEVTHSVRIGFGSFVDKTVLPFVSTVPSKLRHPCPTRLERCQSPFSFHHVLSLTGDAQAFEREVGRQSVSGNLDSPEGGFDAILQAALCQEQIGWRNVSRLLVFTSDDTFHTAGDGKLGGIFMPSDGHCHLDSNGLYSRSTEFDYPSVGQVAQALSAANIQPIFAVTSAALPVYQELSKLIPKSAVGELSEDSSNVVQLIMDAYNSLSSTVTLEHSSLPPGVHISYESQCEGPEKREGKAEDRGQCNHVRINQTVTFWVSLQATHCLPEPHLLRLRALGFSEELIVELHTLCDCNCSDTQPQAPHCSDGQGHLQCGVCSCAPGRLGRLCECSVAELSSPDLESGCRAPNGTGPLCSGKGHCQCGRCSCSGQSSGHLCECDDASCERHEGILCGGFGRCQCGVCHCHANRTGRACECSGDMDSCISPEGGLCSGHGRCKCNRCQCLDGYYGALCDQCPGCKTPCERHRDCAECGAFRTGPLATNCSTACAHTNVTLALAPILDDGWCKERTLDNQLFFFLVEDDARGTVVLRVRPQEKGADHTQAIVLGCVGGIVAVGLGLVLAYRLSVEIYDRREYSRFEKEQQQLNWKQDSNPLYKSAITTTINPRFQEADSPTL

`Cc1ccc(CNC(=O)c2ccccc2NC(=O)CN2CCc3ccccc32)cc1` [Compound 3]: in assay [1], the IC50 was 19.2 nM. Moreover, the “Inhibition of HIV infectivity in %” value is reported as 67.64% in assay [2] (0.008 μM); 58.63% in assay [2] (0.04 μM); 61.6% in assay [2] (0.2 μM); 42.22% in assay [2] (1 μM); 12.81% in assay [2] (5 μM); 2.39% in assay [2] (25 μM). Further, in assay [2] (125 μM), the “Inhibition of HIV infectivity in %” value is 0.19%. The same molecule displayed an EC50 in assay [2] of 1690 nM. The same molecule came in with an EC90 in assay [2] of 15200 nM.

As for `O=C(CN1CCN(Cc2ccsc2)CC1)Nc1ccccc1C(=O)NCc1ccccc1` [Compound 4], the IC50 in assay [1] is 0.27 nM.

Take enfuvirtide: the “inhibition of viral replication” value in the assay on HIV-1-LAI strain (0.32 nM) is recorded as −9% ± 3; with HIV-1-LAI strain (1.6 nM), 5% ± 15; with HIV-1-LAI strain (8 nM), −13% ± 4; in the assay on HIV-1-LAI strain (40 nM), 100% ± 0; in the assay with HIV-1-LAI strain (200 nM) it was 100% ± 0; with HIV-1-LAI strain (1000 nM) it was 100% ± 0. For the same molecule, in the assay with HIV-1-LAI strain, the ED50 came out at 28.9 nM. Besides, the ED70 in the assay with HIV-1-LAI strain is 30 nM. In the assay on HIV-1-LAI strain, this molecule had an ED90 of 31.7 nM.

On to `CC(NC(=O)c1ccccc1NC(=O)CN1CCc2ccccc21)c1ccccc1` (stereo not drawn) [Compound 13], for which, in assay [1], the IC50 amounted to 2.45 nM.

Consider `Cc1ccc(CNC(=O)c2ccccc2NC(=O)CN2CCN(C(C)C(=O)NC3CC3)CC2)cc1` (stereo not drawn) [Compound 6], for which the IC50 in assay [1] is 0.61 nM.

Turning to `CCC(=O)Nc1cccc(C(=O)Nc2ccccc2C(=O)NCc2ccc(C)cc2)c1` [Compound 12], the IC50 in assay [1] was 2.19 nM.

For `O=C(Nc1ccccc1C(=O)NCc1ccccc1)c1cccc([N+](=O)[O-])c1` [Compound 10], the IC50 in assay [1] worked out at 1.53 nM.

Turning to `CC1CCCCN1CC(=O)Nc1ccccc1C(=O)NCc1ccccc1` (stereo not drawn) [Compound 9], the IC50 in assay [1] amounted to 1.23 nM.

As for `Cc1cn([C@H]2C[C@H](N=[N+]=[N-])[C@@H](CO)O2)c(=O)[nH]c1=O` [AZT, Zidovudine], the inhibition at 0.00032 µM in the assay on HIV-1-LAI strain (Human immunodeficiency virus 1, 168 h, 0.32 nM, read-out: inhibition of viral replication) was found to be 16%. Besides, the inhibition at 0.0016 µM in the assay with HIV-1-LAI strain (Human immunodeficiency virus 1, 168 h, 1.6 nM, read-out: inhibition of viral replication) amounted to 59%. Moreover, the inhibition at 0.008 µM with HIV-1-LAI strain (Human immunodeficiency virus 1, 168 h, 8 nM, read-out: inhibition of viral replication) turned out to be 95%. Besides, in the assay with HIV-1-LAI strain (Human immunodeficiency virus 1, 168 h, 40 nM, read-out: inhibition of viral replication), the inhibition at 0.04 µM turned out to be 100%. The inhibition at 0.2 µM in the assay with HIV-1-LAI strain (Human immunodeficiency virus 1, 168 h, 200 nM, read-out: inhibition of viral replication) worked out at 100%. Besides, in the assay on HIV-1-LAI strain (Human immunodeficiency virus 1, 168 h, 1000 nM, read-out: inhibition of viral replication), the inhibition at 1 µM was 100%. In the assay with HIV-1-LAI strain, this molecule came in with an ED50 of 1.3 nM, an ED70 of 2.5 nM and an ED90 of 6.6 nM.

With `CC(NC(=O)c1ccccc1NC(=O)CN1C(=O)NC(Cc2ccccc2)C1=O)c1ccccc1` (stereo not drawn) [Compound 15], the IC50 in assay [1] was 2.8 nM.

On to `CC1(c2ccc(F)cc2)NC(=O)N(CC(=O)Nc2ccccc2C(=O)NCc2ccccc2)C1=O` (stereo not drawn) [Compound 7], for which the IC50 in assay [1] was 0.46 nM.

Consider `O=C(CCc1ccccc1)Nc1ccccc1C(=O)NCc1ccccc1` [Compound 1], for which, in assay [1], the IC50 came out at 0.33 nM.

Take `CC(NC(=O)c1ccccc1NC(=O)CN1C(=O)C(=O)N(Cc2ccccc2)C1=O)c1ccccc1` (stereo not drawn) [Compound 5]: in assay [1], the IC50 is 0.64 nM.

For the molecule `O=C(Cc1ccc(F)cc1)Nc1ccccc1C(=O)NCc1ccccc1` [Compound 2], the half-inhibitory concentration (IC50) in assay [1] was determined as 0.89 nM. Besides, the “inhibition of viral replication” value is 16% ± 4^ in the assay on HIV-1-LAI strain (3.2 nM); −6% ± 22^ in the assay on HIV-1-LAI strain (16 nM); 4% ± 8 in the assay with HIV-1-LAI strain (80 nM); 6% ± 16 with HIV-1-LAI strain (400 nM); 22% ± 3^ in the assay with HIV-1-LAI strain (2000 nM); 87% ± 9^ with HIV-1-LAI strain (10000 nM). Moreover, the ED50 with HIV-1-LAI strain came out at 5590 ± 441 nM. The ED70 with HIV-1-LAI strain was 8021 ± 710 nM. The molecule also had an ED90 with HIV-1-LAI strain of 9826 ± 246 nM. In addition, the “Inhibition of HIV infectivity in %” value stood at 69.28% in assay [2] (0.008 μM); 51.94% in assay [2] (0.04 μM); 62.3% in assay [2] (0.2 μM); 60.66% in assay [2] (1 μM); 13.81% in assay [2] (5 μM); 2.76% in assay [2] (25 μM). For the same molecule, the “Inhibition of HIV infectivity in %” value in assay [2] (125 μM) was found to be 4.1%. In addition, in assay [2], a half-maximal response (EC50) required 3400 nM. This molecule had a concentration for an effect of 90% (EC90) in assay [2] of 30600 nM.
